Test results from PubChem BioAssay (NCI).
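Interpolation was linear, between the two tested concentrations surrounding the appropriate level; five concentrations were tested over 48 hours in 96-well plates. TGI is the concentration that stops growth completely.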

What was measured:
Assay in all cases: NCI anticancer screen, dose series, 48 h
BT-549 breast = system: BT-549 breast
SNB-19 CNS = system: SNB-19 CNS
HS 578T breast = system: HS 578T breast
MDA-N = system: MDA-N
NCI-H226 lung = system: NCI-H226 lung
SK-MEL-28 melanoma = system: SK-MEL-28 melanoma
LOX IMVI melanoma = system: LOX IMVI melanoma
SK-MEL-2 melanoma = system: SK-MEL-2 melanoma
MALME-3M melanoma = system: MALME-3M melanoma
A498 renal = system: A498 renal
CAKI-1 renal = system: CAKI-1 renal
COLO 205 colon = system: COLO 205 colon
SR leukemia = system: SR leukemia
CCRF-CEM leukemia = system: CCRF-CEM leukemia
K-562 leukemia = system: K-562 leukemia
UACC-257 melanoma = system: UACC-257 melanoma
HCC-2998 colon = system: HCC-2998 colon
T-47D breast = system: T-47D breast
EKVX NSCLC = system: EKVX NSCLC
U251 CNS = system: U251 CNS
MCF7 breast = system: MCF7 breast
IGROV1 ovarian = system: IGROV1 ovarian
HOP-62 NSCLC = system: HOP-62 NSCLC
TK-10 renal = system: TK-10 renal
MOLT-4 leukemia = system: MOLT-4 leukemia
SN12C renal = system: SN12C renal
RPMI-8226 leukemia = system: RPMI-8226 leukemia
OVCAR-5 ovarian = system: OVCAR-5 ovarian
SF-295 CNS = system: SF-295 CNS
SF-539 CNS = system: SF-539 CNS
NCI-H522 lung = system: NCI-H522 lung
MDA-MB-231 breast = system: MDA-MB-231 breast
SK-MEL-5 melanoma = system: SK-MEL-5 melanoma
M14 melanoma = system: M14 melanoma
PC-3 prostate = system: PC-3 prostate
NCI-H460 lung = system: NCI-H460 lung
786-0 renal = system: 786-0 renal
HCT-116 colon = system: HCT-116 colon
HT29 colon = system: HT29 colon
HOP-92 NSCLC = system: HOP-92 NSCLC
ACHN renal = system: ACHN renal
SW-620 colon = system: SW-620 colon
NCI/ADR-RES ovarian = system: NCI/ADR-RES ovarian
A549 NSCLC = system: A549 NSCLC
MDA-MB-435 = system: MDA-MB-435
DU-145 prostate = system: DU-145 prostate
OVCAR-8 ovarian = system: OVCAR-8 ovarian
KM12 colon = system: KM12 colon
SK-OV-3 ovarian = system: SK-OV-3 ovarian
NCI-H23 lung = system: NCI-H23 lung
SF-268 CNS = system: SF-268 CNS
UACC-62 melanoma = system: UACC-62 melanoma
HCT-15 colon = system: HCT-15 colon
OVCAR-4 ovarian = system: OVCAR-4 ovarian
SNB-75 CNS = system: SNB-75 CNS
RXF 393 renal = system: RXF 393 renal
HL-60(TB) leukemia = system: HL-60(TB) leukemia
OVCAR-3 ovarian = system: OVCAR-3 ovarian
UO-31 renal = system: UO-31 renal

With `CCCCCCCCCCCCCCCCNc1nc(=O)n(C2CC(O)C(COP(=O)(O)OC3CC(n4cc(F)c(=O)[nH]c4=O)OC3CO)O2)cc1F` (centres undefined) the TGI (BT-549 breast) was 35.3 µM, the TGI (SNB-19 CNS) was 3.39 µM and the TGI (HS 578T breast) was > 100 µM. For the same compound, the TGI (MDA-N) was > 100 µM, the TGI (NCI-H226 lung) was > 100 µM and the TGI (SK-MEL-28 melanoma) was > 68.7 µM. The TGI (LOX IMVI melanoma) was 17.1 µM, the TGI (SK-MEL-2 melanoma) was > 63.9 µM and the TGI (MALME-3M melanoma) was > 72.1 µM. For the same compound, the TGI (A498 renal) was > 89.6 µM, the TGI (CAKI-1 renal) was > 100 µM and the TGI (COLO 205 colon) was 47.4 µM. It also gave a TGI (SR leukemia) of 13.1 µM, a TGI (CCRF-CEM leukemia) of 17.6 µM and a TGI (K-562 leukemia) of 24.1 µM. The TGI (UACC-257 melanoma) was > 59 µM, the TGI (HCC-2998 colon) was 11 µM and the TGI (T-47D breast) was > 100 µM. For the same compound, the TGI (EKVX NSCLC) was 99.3 µM, the TGI (U251 CNS) was 32 µM and the TGI (MCF7 breast) was 97.1 µM. The TGI (IGROV1 ovarian) was > 59.9 µM, the TGI (HOP-62 NSCLC) was 5.4 µM and the TGI (TK-10 renal) was > 100 µM. For the same compound, the TGI (MOLT-4 leukemia) was 17.9 µM, the TGI (SN12C renal) was > 100 µM and the TGI (RPMI-8226 leukemia) was 25.5 µM. For the same compound, the TGI (OVCAR-5 ovarian) was > 100 µM, the TGI (SF-295 CNS) was 18.9 µM and the TGI (SF-539 CNS) was 0.956 µM. For the same compound, the TGI (NCI-H522 lung) was 55.4 µM, the TGI (MDA-MB-231 breast) was > 91.5 µM and the TGI (SK-MEL-5 melanoma) was > 41.9 µM. For the same compound, the TGI (M14 melanoma) was 16.5 µM, the TGI (PC-3 prostate) was > 78.6 µM and the TGI (NCI-H460 lung) was 22.6 µM. The TGI (786-0 renal) was > 100 µM, the TGI (HCT-116 colon) was > 100 µM and the TGI (HT29 colon) was 26.5 µM. For the same compound, the TGI (HOP-92 NSCLC) was > 59.5 µM, the TGI (ACHN renal) was > 100 µM and the TGI (SW-620 colon) was > 100 µM. The TGI (NCI/ADR-RES ovarian) was 46 µM, the TGI (A549 NSCLC) was 26.4 µM and the TGI (MDA-MB-435) was > 100 µM. For the same compound, the TGI (DU-145 prostate) was > 70.6 µM, the TGI (OVCAR-8 ovarian) was 44.2 µM and the TGI (KM12 colon) was > 81.4 µM. For the same compound, the TGI (SK-OV-3 ovarian) was > 100 µM, the TGI (NCI-H23 lung) was 19.4 µM and the TGI (SF-268 CNS) was > 34.2 µM. The TGI (UACC-62 melanoma) was 17.3 µM, the TGI (HCT-15 colon) was 50.9 µM and the TGI (OVCAR-4 ovarian) was > 100 µM. The TGI (SNB-75 CNS) was > 68.8 µM, the TGI (RXF 393 renal) was 30.3 µM and the TGI (HL-60(TB) leukemia) was 19 µM. For the same compound, the TGI (OVCAR-3 ovarian) was > 100 µM and the TGI (UO-31 renal) was > 46.8 µM.
